Laboratory results published in ChEMBL document CHEMBL1153902, “Investigations of SCIO-469-like compounds for the inhibition of p38 MAP kinase” (Bioorg Med Chem Lett, 2009).

Test: Selectivity for p38alpha over p38beta

Row | SMILES | fold change (FC)
1 | CN(C)C(=O)C(=O)c1cn(C)c2cc(Cl)c(C(=O)N3CCC(Cc4ccc(F)cc4)CC3)cc12 | 10

Test: Inhibition of p38 MAPK assessed as substrate phosphorylation at 10 uM by ELISA

Row | SMILES | inhibition
2 | CN(C)C(=O)C(=O)c1cn(C)c2ccc(NC(=O)N3CCN(Cc4ccc(F)cc4)CC3)cc12 | 12%
3 | Cn1c(C(=O)N2CCN(Cc3ccc(F)cc3)CC2)nc2ccccc21 | 32%
4 | CC(=O)c1ccc2[nH]c(C(=O)N3CCN(Cc4ccc(F)cc4)CC3)cc2c1 | 45%
5 | Cn1ccc2cc(NC(=O)N3CCN(Cc4ccc(F)cc4)CC3)ccc21 | 28%
6 | CC(=O)c1c(C(=O)N2CCN(Cc3ccc(F)cc3)CC2)[nH]c2ccccc12 | 24%
7 | O=C(c1ccco1)N1CCN(Cc2ccccc2)CC1 | 20%
8 | O=C(c1nc2ccccc2[nH]1)N1CCN(Cc2ccc(F)cc2)CC1 | 24%
9 | O=C(c1ccco1)N1CCN(Cc2ccc(F)cc2)CC1 | 35%
10 | O=C(c1cc2c(Br)cccc2[nH]1)N1CCN(Cc2ccc(F)cc2)CC1 | 34%
11 | Fc1ccc(CN2CCN(Cc3cc4ccccc4[nH]3)CC2)cc1 | 25%
12 | O=C(c1cn2ccccc2n1)N1CCN(Cc2ccc(F)cc2)CC1 | 33%
13 | CC(C)(C)OC(=O)n1ccc2cc(CNC(=O)N3CCN(Cc4ccc(F)cc4)CC3)ccc21 | 8%

Test: Inhibition of p38 MAPK assessed as substrate phosphorylation by ELISA

Row | SMILES | IC50
14 | O=C(c1cc2ccccc2o1)N1CCN(Cc2ccc(F)cc2)CC1 | 8.42 µM
15 | O=C(c1cc2ccccc2o1)N1CCC(Cc2ccccc2)CC1 | 1.75 µM
16 | CC(=O)c1cccc2cc(C(=O)N3CCN(Cc4ccc(F)cc4)CC3)[nH]c12 | 3.61 µM
17 | Cn1c(C(=O)N2CCN(Cc3ccc(F)cc3)CC2)cc2ccccc21 | 1.36 µM
18 | Cn1c(C(=O)N2CCN(Cc3ccc(F)cc3)CC2)c(Br)c2ccccc21 | 2.24 µM
19 | O=C(c1[nH]c2ccccc2c1Br)N1CCN(Cc2ccc(F)cc2)CC1 | 6.46 µM
20 | O=C(c1cc2ccccc2[nH]1)N1CCC(Cc2ccccc2)CC1 | 1.09 µM
21 | CC(=O)c1cccc2c(Cl)c(C(=O)N3CCN(Cc4ccc(F)cc4)CC3)[nH]c12 | 2.46 µM
22 | O=C(c1cc2ccccc2[nH]1)N1CCN(Cc2ccccc2)CC1 | 5.77 µM
23 | O=C(c1[nH]c2ccccc2c1Cl)N1CCN(Cc2ccc(F)cc2)CC1 | 7.57 µM
24 | O=C(c1cc2ccccc2[nH]1)N1CCN(Cc2ccc(F)cc2)CC1 | 3.2 µM
25 | CC(=O)c1ccc2[nH]c(C(=O)N3CCN(Cc4ccc(F)cc4)CC3)c(Cl)c2c1 | 6.51 µM
26 | O=C(c1[nH]c2ccccc2c1I)N1CCN(Cc2ccc(F)cc2)CC1 | 7.47 µM
